In US7192906B2, “Substituted pyrazole derivatives, production process thereof, and herbicide compositions containing the derivatives” (SDS Biotech K.K., priority 2001, dated 2007):

How the values were obtained:
Type in all cases: in vivo
Rice (Oryza sativa) = experiment: Test Example 3 paddy field treatment, crop phytotoxicity; details: active ingredient 1 kg per hectare, index 0-5; for Herbicidal activity (phytotoxicity) OS: Table 6, paddy field treatment, transplanted rice, 21st day after dropping; for Herbicidal activity OS (phytotoxicity to rice): paddy field treatment, transplanted rice Koshihikari, wettable powder, 21st day after the dropping
Outline: (§1)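 Weed seeds sown in puddled paddy soil under 4 cm water, with two-leaf Koshihikari rice transplanted; 10 days later a wettable powder was applied to the water surface at 1 kg active ingredient/ha. Scored 21 days after application on a 0–5 scale (0 = <10%, 5 = ≥90% herbicidal effect or phytotoxicity).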

Digitaria adscendens [1] = experiment: Test Example 1 upland field foliage treatment; details: Table 4, upland field foliage treatment, index 0-5
Outline: (§2)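 Seeds sown in upland soil in pots and covered with about 1 cm soil; on day 14 after sowing, diluted wettable powder applied uniformly to leaves at 1 kg active ingredient per hectare. Weed control or crop phytotoxicity scored visually 21 days after application on a 0–5 scale (5 = ≥90%, 0 = <10%).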

Setaria viridis [2] = experiment: Test Example 1 upland field foliage treatment; details: Table 4, upland field foliage treatment, index 0-5
Outline: as §2

Stellaria media [3] = experiment: Test Example 1 upland field foliage treatment; details: Table 4, upland field foliage treatment, index 0-5
Outline: as §2

Chenopodium album [4] = experiment: Test Example 1 upland field foliage treatment; details: Table 4, upland field foliage treatment, index 0-5
Outline: as §2

Echinochloa crusgalli = experiment: Test Example 3 paddy field treatment; details: active ingredient 1 kg per hectare, index 0-5
Outline: as §1

Scirpus juncoides = experiment: Test Example 3 paddy field treatment; details: active ingredient 1 kg per hectare, index 0-5
Outline: as §1

Ammannia multiflora = experiment: Test Example 3 paddy field treatment; details: active ingredient 1 kg per hectare, index 0-5
Outline: as §1

Monochoria vaginalis = experiment: Test Example 3 paddy field treatment; details: active ingredient 1 kg per hectare, index 0-5
Outline: as §1

Digitaria adscendens [5] = experiment: Test Example 2 upland soil treatment; details: Table 5, upland soil treatment, index 0-5
Outline: (§3)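 Score 0–5 read at day 21 (5 = ≥90% effect or phytotoxicity, 0 = <10%). Wettable powder diluted in water to 1 kg a.i./ha, applied uniformly to upland soil one day after sowing; seeds covered with ~1 cm soil.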

Setaria viridis [6] = experiment: Test Example 2 upland soil treatment; details: Table 5, upland soil treatment, index 0-5
Outline: as §3

Stellaria media [7] = experiment: Test Example 2 upland soil treatment; details: Table 5, upland soil treatment, index 0-5
Outline: as §3

Chenopodium album [8] = experiment: Test Example 2 upland soil treatment; details: Table 5, upland soil treatment, index 0-5
Outline: as §3

[9] = system: wheat (Triticum aestivum); experiment: Test Example 1 upland field foliage treatment, crop phytotoxicity; details: Table 4, upland field foliage treatment, index 0-5
Outline: as §2

soybean (Glycine max) [10] = experiment: as above; details: Table 4, upland field foliage treatment, index 0-5
Outline: as §2

[11] = system: wheat (Triticum aestivum); experiment: Test Example 2 upland soil treatment, crop phytotoxicity; details: Table 5, upland soil treatment, index 0-5
Outline: as §3

soybean (Glycine max) [12] = experiment: as above; details: Table 5, upland soil treatment, index 0-5
Outline: as §3

[13] = Table 6, paddy field treatment, 21st day after dropping
[14] = paddy field treatment, wettable powder, 21st day after the dropping

SMILES	Herbicidal activity (phytotoxicity) OS (Rice (Oryza sativa))	Herbicidal activity DA: Digitaria adscendens (Digitaria adscendens [1])	Herbicidal activity SV: Setaria viridis (Setaria viridis [2])	Herbicidal activity SM: Stellaria media (Stellaria media [3])	Herbicidal activity CA: Chenopodium album (Chenopodium album [4])	Herbicidal activity EC (Echinochloa crusgalli; [13])	Herbicidal activity SJ (Scirpus juncoides; [13])	Herbicidal activity AM (Ammannia multiflora; [13])	Herbicidal activity MV (Monochoria vaginalis; [13])	Herbicidal activity DA: Digitaria adscendens (Digitaria adscendens [5])	Herbicidal activity SV: Setaria viridis (Setaria viridis [6])	Herbicidal activity SM: Stellaria media (Stellaria media [7])	Herbicidal activity CA: Chenopodium album (Chenopodium album [8])	Herbicidal activity (phytotoxicity) TA: Wheat (Triticum aestivum) [9]	Herbicidal activity (phytotoxicity) GM: Soybean (Glycine max) (soybean (Glycine max) [10])	Herbicidal activity (phytotoxicity) TA: Wheat (Triticum aestivum) [11]	Herbicidal activity (phytotoxicity) GM: Soybean (Glycine max) (soybean (Glycine max) [12])	Herbicidal activity OS (phytotoxicity to rice) (Rice (Oryza sativa))	Herbicidal activity EC (Echinochloa crusgalli; [14])	Herbicidal activity SJ (Scirpus juncoides; [14])	also measured
CNC(=O)C(Cn1cc(C)c(-c2ccc(Cl)cc2F)n1)=NOC [Compound 81]	0 (herbicidal effect of not less than 0% and less than 10%, or phytotoxicity of 0% or more and less than 10%)	5 (herbicidal effect of not less than 90%, or phytotoxicity of 90% or more)	5 (herbicidal effect of not less than 90%, or phytotoxicity of 90% or more)	5 (herbicidal effect of not less than 90%, or phytotoxicity of 90% or more)	5 (herbicidal effect of not less than 90%, or phytotoxicity of 90% or more)	5 (herbicidal effect of not less than 90%, or phytotoxicity of 90% or more)	5 (herbicidal effect of not less than 90%, or phytotoxicity of 90% or more)	5 (herbicidal effect of not less than 90%, or phytotoxicity of 90% or more)	5 (herbicidal effect of not less than 90%, or phytotoxicity of 90% or more)	5 (herbicidal effect of not less than 90%, or phytotoxicity of 90% or more)	5 (herbicidal effect of not less than 90%, or phytotoxicity of 90% or more)	5 (herbicidal effect of not less than 90%, or phytotoxicity of 90% or more)	5 (herbicidal effect of not less than 90%, or phytotoxicity of 90% or more)	0 (herbicidal effect of not less than 0% and less than 10%, or phytotoxicity of 0% or more and less than 10%)	0 (herbicidal effect of not less than 0% and less than 10%, or phytotoxicity of 0% or more and less than 10%)	0 (herbicidal effect of not less than 0% and less than 10%, or phytotoxicity of 0% or more and less than 10%)	1 (herbicidal effect of not less than 10% and less than 30%, or phytotoxicity of 10% or more and less than 30%)	–	–	–	–
CNC(=O)C(Cn1cc(C)c(-c2ccc(OC(F)(F)CF)cc2)n1)=NOC [Compound 67]	0 (herbicidal effect of not less than 0% and less than 10%, or phytotoxicity of 0% or more and less than 10%)	5 (herbicidal effect of not less than 90%, or phytotoxicity of 90% or more)	4 (herbicidal effect of not less than 70% and less than 90%, or phytotoxicity of 70% or more and less than 90%)	4 (herbicidal effect of not less than 70% and less than 90%, or phytotoxicity of 70% or more and less than 90%)	5 (herbicidal effect of not less than 90%, or phytotoxicity of 90% or more)	5 (herbicidal effect of not less than 90%, or phytotoxicity of 90% or more)	5 (herbicidal effect of not less than 90%, or phytotoxicity of 90% or more)	4 (herbicidal effect of not less than 70% and less than 90%, or phytotoxicity of 70% or more and less than 90%)	5 (herbicidal effect of not less than 90%, or phytotoxicity of 90% or more)	4 (herbicidal effect of not less than 70% and less than 90%, or phytotoxicity of 70% or more and less than 90%)	4 (herbicidal effect of not less than 70% and less than 90%, or phytotoxicity of 70% or more and less than 90%)	5 (herbicidal effect of not less than 90%, or phytotoxicity of 90% or more)	5 (herbicidal effect of not less than 90%, or phytotoxicity of 90% or more)	0 (herbicidal effect of not less than 0% and less than 10%, or phytotoxicity of 0% or more and less than 10%)	0 (herbicidal effect of not less than 0% and less than 10%, or phytotoxicity of 0% or more and less than 10%)	0 (herbicidal effect of not less than 0% and less than 10%, or phytotoxicity of 0% or more and less than 10%)	0 (herbicidal effect of not less than 0% and less than 10%, or phytotoxicity of 0% or more and less than 10%)	–	–	–	–
CON=C(Cn1cc(C)c(-c2ccccc2)n1)C(=O)NCc1ccccc1 [Compound 30]	–	4 (herbicidal effect of not less than 70% and less than 90%, or phytotoxicity of 70% or more and less than 90%)	3 (herbicidal effect of not less than 50% and less than 70%, or phytotoxicity of 50% or more and less than 70%)	3 (herbicidal effect of not less than 50% and less than 70%, or phytotoxicity of 50% or more and less than 70%)	4 (herbicidal effect of not less than 70% and less than 90%, or phytotoxicity of 70% or more and less than 90%)	–	–	–	–	3 (herbicidal effect of not less than 50% and less than 70%, or phytotoxicity of 50% or more and less than 70%)	4 (herbicidal effect of not less than 70% and less than 90%, or phytotoxicity of 70% or more and less than 90%)	3 (herbicidal effect of not less than 50% and less than 70%, or phytotoxicity of 50% or more and less than 70%)	4 (herbicidal effect of not less than 70% and less than 90%, or phytotoxicity of 70% or more and less than 90%)	0 (herbicidal effect of not less than 0% and less than 10%, or phytotoxicity of 0% or more and less than 10%)	0 (herbicidal effect of not less than 0% and less than 10%, or phytotoxicity of 0% or more and less than 10%)	0 (herbicidal effect of not less than 0% and less than 10%, or phytotoxicity of 0% or more and less than 10%)	0 (herbicidal effect of not less than 0% and less than 10%, or phytotoxicity of 0% or more and less than 10%)	0 (herbicidal effect of not less than 0% and less than 10%, or phytotoxicity of 0% or more and less than 10%)	4 (herbicidal effect of not less than 70% and less than 90%, or phytotoxicity of 70% or more and less than 90%)	4 (herbicidal effect of not less than 70% and less than 90%, or phytotoxicity of 70% or more and less than 90%)	Herbicidal activity AM (Ammannia multiflora; [14]): 4 (herbicidal effect of not less than 70% and less than 90%, or phytotoxicity of 70% or more and less than 90%); Herbicidal activity MV (Monochoria vaginalis; [14]): 5 (herbicidal effect of not less than 90%, or phytotoxicity of 90% or more)
C=CCNC(=O)C(Cn1cc(C)c(-c2ccccc2)n1)=NOC [Compound 26]	–	5 (herbicidal effect of not less than 90%, or phytotoxicity of 90% or more)	4 (herbicidal effect of not less than 70% and less than 90%, or phytotoxicity of 70% or more and less than 90%)	5 (herbicidal effect of not less than 90%, or phytotoxicity of 90% or more)	5 (herbicidal effect of not less than 90%, or phytotoxicity of 90% or more)	–	–	–	–	5 (herbicidal effect of not less than 90%, or phytotoxicity of 90% or more)	4 (herbicidal effect of not less than 70% and less than 90%, or phytotoxicity of 70% or more and less than 90%)	5 (herbicidal effect of not less than 90%, or phytotoxicity of 90% or more)	5 (herbicidal effect of not less than 90%, or phytotoxicity of 90% or more)	0 (herbicidal effect of not less than 0% and less than 10%, or phytotoxicity of 0% or more and less than 10%)	0 (herbicidal effect of not less than 0% and less than 10%, or phytotoxicity of 0% or more and less than 10%)	0 (herbicidal effect of not less than 0% and less than 10%, or phytotoxicity of 0% or more and less than 10%)	0 (herbicidal effect of not less than 0% and less than 10%, or phytotoxicity of 0% or more and less than 10%)	0 (herbicidal effect of not less than 0% and less than 10%, or phytotoxicity of 0% or more and less than 10%)	5 (herbicidal effect of not less than 90%, or phytotoxicity of 90% or more)	5 (herbicidal effect of not less than 90%, or phytotoxicity of 90% or more)	Herbicidal activity AM (Ammannia multiflora; [14]): 5 (herbicidal effect of not less than 90%, or phytotoxicity of 90% or more); Herbicidal activity MV (Monochoria vaginalis; [14]): 5 (herbicidal effect of not less than 90%, or phytotoxicity of 90% or more)
